Measurements taken from ChEMBL document CHEMBL1136748, “A novel N-terminal cyclic dynorphin A analogue cyclo(N,5)[Trp(3),Trp(4),Glu(5)] dynorphin A-(1-11)NH(2) that lacks the basic N-terminus” (J Med Chem, 2003).
pKi: −log10 of the molar value. Where a SMILES comes first, the peptide text is derived from it. Bridges are numbered along the chain shown (N, C = ends). [ ]: non-standard residue; d: D form.

Assays:
Type in all cases: cell-based
[1] = target: Kappa-type opioid receptor (Cavia porcellus, UniProt P41144); assay: Binding affinity towards Opioid receptor kappa 1 using [3H]diprenorphine as radioligand in Chinese hamster ovary cells expressing cloned opioid receptors
Chain of Kappa-type opioid receptor (P41144 whole entry): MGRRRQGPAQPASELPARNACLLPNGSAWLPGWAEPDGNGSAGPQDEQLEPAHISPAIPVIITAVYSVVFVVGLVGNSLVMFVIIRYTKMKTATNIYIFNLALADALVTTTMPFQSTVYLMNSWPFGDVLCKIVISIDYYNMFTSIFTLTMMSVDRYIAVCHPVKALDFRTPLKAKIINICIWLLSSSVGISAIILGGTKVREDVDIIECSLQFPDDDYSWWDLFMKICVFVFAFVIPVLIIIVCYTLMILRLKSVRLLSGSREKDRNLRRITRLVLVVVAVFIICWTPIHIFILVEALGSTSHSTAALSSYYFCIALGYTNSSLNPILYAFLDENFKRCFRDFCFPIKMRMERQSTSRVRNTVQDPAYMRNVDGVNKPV

[2] = target: Delta-type opioid receptor (Rattus norvegicus, UniProt P33533); assay: Binding affinity towards Opioid receptor delta 1 using [3H]DPDPE as radioligand in Chinese hamster ovary cells expressing cloned opioid receptors
Chain of Delta-type opioid receptor (P33533 whole entry): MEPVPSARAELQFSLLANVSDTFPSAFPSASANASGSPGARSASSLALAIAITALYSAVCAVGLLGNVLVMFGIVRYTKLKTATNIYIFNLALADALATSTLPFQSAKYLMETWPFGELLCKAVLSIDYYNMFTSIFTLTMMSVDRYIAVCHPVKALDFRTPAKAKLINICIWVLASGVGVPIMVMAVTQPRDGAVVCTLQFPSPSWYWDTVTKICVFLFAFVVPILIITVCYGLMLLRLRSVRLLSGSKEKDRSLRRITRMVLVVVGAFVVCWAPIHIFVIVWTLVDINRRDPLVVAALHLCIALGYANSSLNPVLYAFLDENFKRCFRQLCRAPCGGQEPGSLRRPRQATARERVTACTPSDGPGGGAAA

[3] = target: Kappa-type opioid receptor (Rattus norvegicus) (UniProt P34975); assay: Tested for maximum percentage inhibition against cloned rat Opioid receptor kappa 1 stably expressed in CHO cells by adenylyl cyclase assay
Chain of Kappa-type opioid receptor (Rattus norvegicus) (P34975 whole entry): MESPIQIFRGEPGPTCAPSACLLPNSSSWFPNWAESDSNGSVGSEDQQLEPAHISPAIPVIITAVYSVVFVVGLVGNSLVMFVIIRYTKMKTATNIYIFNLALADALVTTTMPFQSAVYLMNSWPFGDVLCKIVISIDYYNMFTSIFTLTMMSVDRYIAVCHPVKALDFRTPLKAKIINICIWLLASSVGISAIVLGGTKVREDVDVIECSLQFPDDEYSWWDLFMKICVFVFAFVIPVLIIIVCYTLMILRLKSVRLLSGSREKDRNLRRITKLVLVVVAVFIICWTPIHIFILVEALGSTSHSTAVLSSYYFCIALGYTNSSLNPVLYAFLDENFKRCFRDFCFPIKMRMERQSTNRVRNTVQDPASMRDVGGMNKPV

[4] = target: Mu-type opioid receptor (Homo sapiens, UniProt P35372); assay: Binding affinity towards Opioid receptor mu 1 using [3H]DAMGO as radioligand in Chinese hamster ovary cells expressing cloned opioid receptors
Chain of Mu-type opioid receptor (P35372 whole entry): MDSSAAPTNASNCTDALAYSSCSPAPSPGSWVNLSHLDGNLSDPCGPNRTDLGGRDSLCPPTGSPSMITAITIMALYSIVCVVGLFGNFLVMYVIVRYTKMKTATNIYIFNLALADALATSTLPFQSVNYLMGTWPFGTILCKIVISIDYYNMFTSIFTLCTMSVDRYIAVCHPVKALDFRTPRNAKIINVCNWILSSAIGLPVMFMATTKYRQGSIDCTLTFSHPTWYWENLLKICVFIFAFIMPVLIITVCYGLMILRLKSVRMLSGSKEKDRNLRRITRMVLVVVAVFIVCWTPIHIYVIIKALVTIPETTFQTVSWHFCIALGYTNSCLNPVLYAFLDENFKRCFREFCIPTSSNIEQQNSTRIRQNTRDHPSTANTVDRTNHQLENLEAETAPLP

Molecule | pKi [1] | pKi [2] | inhibition [3] | pKi [4]
CC(=O)N[C@@H](Cc1ccc(O)cc1)C(=O)N[C@@H](CCCCN)C(=O)N[C@@H](Cc1c[nH]c2ccccc12)C(=O)N[C@@H](Cc1c[nH]c2ccccc12)C(=O)N[C@@H](CC(C)C)C(=O)N[C@@H](CCCN=C(N)N)C(=O)N[C@@H](CCCN=C(N)N)C(=O)N[C@H](C)C(=O)N[C@@H](CCCN=C(N)N)C(=O)N1CCC[C@H]1C(=O)N[C@@H](CCCCN)C(N)=O [VENORPHIN] (Ac-YKWWLRR[dA]RPK-NH2) | 7.70 | 5.27 |  | 
Ac-YKWWLRRARPK-NH2 |  |  | 28% | 
CC[C@H](C)[C@H](NC(=O)[C@H](CCCN=C(N)N)NC(=O)[C@H](CCCN=C(N)N)NC(=O)[C@@H]1CCC(=O)N[C@@H](Cc2ccc(O)cc2)C(=O)NCC(=O)N[C@@H](Cc2c[nH]c3ccccc23)C(=O)N[C@@H](Cc2c[nH]c3ccccc23)C(=O)N1)C(=O)N[C@@H](CCCN=C(N)N)C(=O)N1CCC[C@@H]1C(=O)N[C@@H](CCCCN)C(=O)O |  |  | 8% | 
CC(=O)N[C@@H](Cc1ccc(O)cc1)C(=O)NCC(=O)N[C@@H](Cc1c[nH]c2ccccc12)C(=O)N[C@@H](Cc1c[nH]c2ccccc12)C(=O)N[C@@H](CC(C)C)C(=O)N[C@@H](CCCN=C(N)N)C(=O)N[C@@H](CCCN=C(N)N)C(=O)N[C@H](C)C(=O)N[C@@H](CCCN=C(N)N)C(=O)N1CCC[C@H]1C(=O)N[C@@H](CCCCN)C(N)=O [[GLY2]VENORPHIN] | 8.08 | < 5.00 |  | 6.47
CC(=O)N[C@@H](Cc1ccc(O)cc1)C(=O)NCC(=O)N[C@@H](Cc1c[nH]c2ccccc12)C(=O)N[C@@H](Cc1c[nH]c2ccccc12)C(=O)N[C@@H](CC(C)C)C(=O)N[C@@H](CCCN=C(N)N)C(=O)N[C@@H](CCCN=C(N)N)C(=O)N[C@@H](C)C(=O)N[C@@H](CCCN=C(N)N)C(=O)N1CCC[C@H]1C(=O)N[C@@H](CCCCN)C(N)=O |  |  | 15% | 
CC[C@H](C)[C@H](NC(=O)[C@H](CCCNC(=N)N)NC(=O)[C@H](CCCNC(=N)N)NC(=O)[C@@H]1CCC(=O)N[C@@H](Cc2ccc(O)cc2)C(=O)NCC(=O)N[C@@H](Cc2c[nH]c3ccccc23)C(=O)N[C@@H](Cc2c[nH]c3ccccc23)C(=O)N1)C(=O)N[C@@H](CCCNC(=N)N)C(=O)N1CCC[C@H]1C(=O)N[C@@H](CCCCN)C(N)=O (YGWWERRIRPK-NH2; lactam N-5) | 7.57 | < 5.05 |  | 6.48
